The values below come from PMC7160362, “A Polyamine-Based Dinitro-Naphthalimide Conjugate as Substrates for Polyamine Transporters Preferentially Accumulates in Cancer Cells and Minimizes Side Effects in vitro and in vivo” (Frontiers in Chemistry, 2020).

Where two headings read alike, the source gives them in different places.

The test system of assay [1] is HL-7702 (normal liver cell). Description: MTT cytotoxicity on matched normal cells. The following applies: for SI (selectivity index), range over Snu-368 and Snu-739: HL-7702 versus Snu-368 and Snu-739. It is filed as cell-based. The protocol:
(§1) We incubated hepatic carcinoma (Snu-368 and Snu-739), breast carcinoma (MDA-MB-231 and MCF-7), cisplatin-sensitive lung cancer cells A549, and cisplatin-resistant lung cancer cells A549cisR in 96-well plates in a 5% CO2 atmosphere at 37°C for 24 h (5,000 cells/well). After adding drugs in freshly prepared culture medium (100 μl) and incubating for another 48 h, we added 20 μl MTT (5 mg/ml) and incubated for another 3 h. At last, after the medium was removed, 150 μl DMSO was added. By using a Bio-Rad 680 microplate reader, the absorbance was measured at 570 nm and the IC50 values were calculated using the GraphPad Prism software based on three parallel experiments.
The selectivity for cancer cells over normal healthy cells is important for ideal anticancer agents, thereby mitigating undesired toxic side effects associated with chemotherapy. The selectivity of polyamine-based dinitro-naphthalimide conjugates 5a-5c was evaluated by Snu-368 and Snu-739 (hepatic carcinoma), and the matched normal cells HL-7702 (normal liver cell). Moreover, dinitro-naphthalimide conjugates 5a-5c (SI 1.94–7.47) show lower cytotoxicity in normal cells.

Assay [2] concerns Snu-739 cells (hepatic carcinoma). Description: MTT cytotoxicity assay. To be noted: MTT, 48 h. It is filed as cell-based. The procedure:
as §1
(§2) In vitro assays were firstly conducted to evaluate the inhibitory effect of polyamine-based naphthalimide conjugates 5a-5c, 7a-7b, and 11a-11b on six cancer cell lines, namely, Snu-368 and Sun-739 (hepatoma cell line), MCF-7 (breast carcinoma), MDA-MB-231 (triple negative breast cancer), cisplatin-sensitive lung cancer A549, and resistant A549cisR cells by using traditional MTT tests. Two classic antitumor agents in clinic trials, amonafide and cisplatin, were chosen as the reference drugs (Table 1). The preliminary structure–activity relationship (SAR) can be obtained from the in vitro biological results.
(In general: Formazan colour is commonly taken as a measure of viable cells.)

The subject of assay [3] is MDA-MB-231 cells (triple negative breast cancer). Description: MTT cytotoxicity assay. The following applies: MTT, 48 h. The assay is classed as cell-based. The procedure: as §1, §2
For assay [4], the system named is cisplatin-resistant lung cancer cells A549cisR. Description: MTT cytotoxicity assay. The assay is classed as cell-based. To be noted: for RF (resistance factor): IC50 in A549cisR cells/IC50 in A549 cells; for IC50: MTT, 48 h. The procedure: as §1, §2
Assay [5] deals with MCF-7 cells (breast carcinoma). Description: MTT cytotoxicity assay. The assay is classed as cell-based. To be noted: MTT, 48 h. The procedure: as §1, §2
The subject of assay [6] is Snu-368 cells (hepatic carcinoma). Description: MTT cytotoxicity assay. The assay is classed as cell-based. The following applies: MTT, 48 h. The procedure:
as §1, §2

For assay [7], the system named is cisplatin-sensitive lung cancer cells A549. Description: MTT cytotoxicity assay. It is filed as cell-based. To be noted: MTT, 48 h. The protocol: as §1, §2
Assay [8] deals with HCC xenografts. Description: In vivo antitumor assay, HCC xenografts. The following applies: 5 mg/kg, tail vein, once every day for 7 days. The source says: Healthy BALB/c mice (Cat. SCXK 2016-0006, Beijing, China) aged 5 weeks were used for the determination of anticancer activity. We obtained BALB/c mice from the Laboratory Animal Center, Academy of Military Medical Science. They were raised in compliance with the Guide for the Care and Use of Laboratory Animals. The weight of healthy BALB/c mice is 18–22 g.
We firstly injected HCC cells with 1 × 10^6 cells per mouse to determine the anticancer activity. After a week, the tumors increased to 80–120 mm^3. The mice were divided into four groups for 5c (3 mg/kg), 5c (5 mg/kg), the positive control amonafide (5 mg/kg), or the negative control physiological saline. We injected 5c or amonafide via the tail vein every day for a total of seven treatments. Body weight was determined every day. And then the mice were sacrificed after 7 days. The tumor tissues were weighed and the inhibition rate [((average tumor weight of negative control group – average tumor weight of the drug treated or positive control group)/average tumor weight of control group) × 100] was calculated. The organ index [(organ weight/body weight) × 100%] was also counted including heart, liver, kidney, lung, and spleen at the last day. Both 5c and amonafide were dissolved in glucose injection. And they were used immediately after preparation.
The highest FI levels in Snu-739 also indicate a significant therapy for HCC. Therefore, HCC animal models were used to test the in vivo antitumor activities. Mice bearing HCC xenografts were treated with 5c (3 mg/kg), 5c (5 mg/kg), the positive control amonafide (5 mg/kg), and normal saline (negative control) once every day for 7 days by tail vein (Figure 3).

Where [9] appears, read: Homo sapiens, L02, read-out: IC50 HL-7702.

Usually IC50 stands for the concentration that gives 50% inhibition. For `O=C1c2cc([N+](=O)[O-])cc3cc([N+](=O)[O-])cc(c23)C(=O)N1CCCCNCCCNC1CCCCC1` [5a], the “SI (selectivity index) IC50 in HL-7702/IC50 in Snu-368” value in assay [1] was found to be 2.14. For the same compound, in assay [1], the “SI (selectivity index) IC50 in HL-7702/IC50 in Snu-739” value was determined as 2.92. The IC50 in assay [1] (setting [9]) came out at 6.3 ± 0.23 µM; in assay [2] (SNU-739), 2.16 ± 0.1 µM; in assay [3] (Homo sapiens, MDA-MB-231), 1.19 ± 0.12 µM; in assay [4] it was 3.62 ± 0.15 µM; in assay [5] (Homo sapiens, MCF7), 2.3 ± 0.18 µM; in assay [6], 2.94 ± 0.06 µM. In addition, in assay [7] (Homo sapiens, A549), the IC50 was 2.17 ± 0.2 µM. For the same compound, in assay [4], the “RF (resistance factor)” value is on record as 1.67.
For the compound `NCCCNCCCNCCCN1C(=O)c2cc(N)cc3cc(N)cc(c23)C1=O` [11a], the IC50 in assay [2] (SNU-739) is 9.69 ± 0.98 µM; in assay [3] (Homo sapiens, MDA-MB-231), 26 ± 2.56 µM; in assay [4], 16.3 ± 1.69 µM; in assay [5] (Homo sapiens, MCF7), 14.8 ± 1.45 µM; in assay [6], over 50 µM; in assay [7] (Homo sapiens, A549) it was 28.3 ± 2.85 µM.
For the compound `NCCCCNCCCCN1C(=O)c2cc(N)cc3cc(N)cc(c23)C1=O` [7b], the IC50 in assay [2] (SNU-739) is over 30 µM; in assay [3] (Homo sapiens, MDA-MB-231), over 30 µM; in assay [4], 17.3 ± 1.78 µM; in assay [5] (Homo sapiens, MCF7), over 30 µM; in assay [6], over 30 µM; in assay [7] (Homo sapiens, A549), over 30 µM.
On to `CN(C)CCN1C(=O)c2cccc3cc(N)cc(c23)C1=O` [Amonafide, amonafide, reference compound], for which the “SI (selectivity index) IC50 in HL-7702/IC50 in Snu-368” value in assay [1] amounted to 0.83. The “SI (selectivity index) IC50 in HL-7702/IC50 in Snu-739” value in assay [1] is 0.89. For the same compound, the “SI (selectivity index), range over Snu-368 and Snu-739” value in assay [1] is 0.83–0.89. Moreover, the IC50 in assay [1] (Homo sapiens, L02, normal liver cell, read-out: IC50 HL-7702) is 11.6 ± 1.36 µM; in assay [2] (SNU-739) it was 13 ± 1.56 µM; in assay [3] (Homo sapiens, MDA-MB-231) it was 14.9 ± 1.75 µM; in assay [4] it was 11 ± 1.02 µM; in assay [5] (Homo sapiens, MCF7), 5.89 ± 0.56 µM; in assay [6], 14 ± 1.78 µM. The IC50 in assay [7] (Homo sapiens, A549) worked out at 6.89 ± 0.68 µM. Moreover, the “RF (resistance factor)” value in assay [4] was 1.59. Further, the “tumor suppression (inhibition rate, tumor weight)” value in assay [8] came out at 53.27%.
In the case of `O=C1c2cc([N+](=O)[O-])cc3cc([N+](=O)[O-])cc(c23)C(=O)N1CCCCNCCCCNC1CCCCC1` [5b], the “SI (selectivity index) IC50 in HL-7702/IC50 in Snu-368” value in assay [1] is reported as 2.78. Moreover, the “SI (selectivity index) IC50 in HL-7702/IC50 in Snu-739” value in assay [1] turned out to be 1.94. The IC50 worked out at 7.56 ± 0.43 µM in assay [1] (setting [9]); 3.89 ± 0.35 µM in assay [2] (SNU-739); 1.07 ± 0.1 µM in assay [3] (Homo sapiens, MDA-MB-231); 2.27 ± 0.25 µM in assay [4]; 1.25 ± 0.1 µM in assay [5] (Homo sapiens, MCF7); 2.72 ± 0.25 µM in assay [6]. For the same compound, in assay [7] (Homo sapiens, A549), it took 1.75 ± 0.15 µM to reach half-maximal inhibition (IC50). For the same compound, in assay [4], the “RF (resistance factor)” value is reported as 1.30.
With `N.N.[Cl][Pt][Cl]` [Cisplatin, cisplatin, reference compound], the “SI (selectivity index) IC50 in HL-7702/IC50 in Snu-368” value in assay [1] came out at 0.53. Further, the “SI (selectivity index) IC50 in HL-7702/IC50 in Snu-739” value in assay [1] amounted to 0.86. In assay [1], the “SI (selectivity index), range over Snu-368 and Snu-739” value is recorded as 0.53–0.86. Further, the IC50 stood at 8.6 ± 0.2 µM in assay [1] (normal liver cell, read-out: IC50 HL-7702); 10 ± 1.23 µM in assay [2]; 16 ± 1.59 µM in assay [3]; 40.4 ± 4.36 µM in assay [4]; 9.6 ± 0.6 µM in assay [5]; 16.4 ± 1.26 µM in assay [6]. In assay [7], the midpoint of inhibition, the IC50, lay at 11 ± 0.15 µM. The “RF (resistance factor)” value in assay [4] was determined as 3.67.
`NCCCNCCCCNCCCN1C(=O)c2cc(N)cc3cc(N)cc(c23)C1=O` [11b]: the IC50 was 23.2 ± 2.36 µM in assay [2] (SNU-739); over 30 µM in assay [3] (Homo sapiens, MDA-MB-231); 15.8 ± 1.58 µM in assay [4]; 25.9 ± 2.56 µM in assay [5] (Homo sapiens, MCF7); over 30 µM in assay [6]; over 30 µM in assay [7] (Homo sapiens, A549).
Regarding `Nc1cc2c3c(cc(N)cc3c1)C(=O)N(CCCCNCCCNC1CC1)C2=O` [7a], the IC50 in assay [2] (SNU-739) is 25.8 ± 2.9 µM; in assay [3] (Homo sapiens, MDA-MB-231) it was 26.9 ± 2.65 µM; in assay [4] it was 17.4 ± 1.68 µM; in assay [5] (Homo sapiens, MCF7), 8.62 ± 0.85 µM; in assay [6], over 30 µM; in assay [7] (Homo sapiens, A549) it was 14 ± 1.39 µM.
